Reference: patent US20170334899A1, “AMINO-SUBSTITUTED ISOTHIAZOLES” (Bayer Pharma Aktiengesellschaft, priority 2014, published 2017)

target: T1, human kinase Mps-1 (Homo sapiens, UniProt P33981); assay: Mps-1 kinase assay (TR-FRET); format: biochemical; conditions: Mps-1 TR-FRET kinase assay; avg; read-out: Mps1 avg (IC50 [mol/l])
T1 construct: N-terminally GST-tagged human full length recombinant Mps-1 kinase; GST (N); purchased Invitrogen, Karslruhe, Germany PV4071
T1 sequence (P33981 1-857): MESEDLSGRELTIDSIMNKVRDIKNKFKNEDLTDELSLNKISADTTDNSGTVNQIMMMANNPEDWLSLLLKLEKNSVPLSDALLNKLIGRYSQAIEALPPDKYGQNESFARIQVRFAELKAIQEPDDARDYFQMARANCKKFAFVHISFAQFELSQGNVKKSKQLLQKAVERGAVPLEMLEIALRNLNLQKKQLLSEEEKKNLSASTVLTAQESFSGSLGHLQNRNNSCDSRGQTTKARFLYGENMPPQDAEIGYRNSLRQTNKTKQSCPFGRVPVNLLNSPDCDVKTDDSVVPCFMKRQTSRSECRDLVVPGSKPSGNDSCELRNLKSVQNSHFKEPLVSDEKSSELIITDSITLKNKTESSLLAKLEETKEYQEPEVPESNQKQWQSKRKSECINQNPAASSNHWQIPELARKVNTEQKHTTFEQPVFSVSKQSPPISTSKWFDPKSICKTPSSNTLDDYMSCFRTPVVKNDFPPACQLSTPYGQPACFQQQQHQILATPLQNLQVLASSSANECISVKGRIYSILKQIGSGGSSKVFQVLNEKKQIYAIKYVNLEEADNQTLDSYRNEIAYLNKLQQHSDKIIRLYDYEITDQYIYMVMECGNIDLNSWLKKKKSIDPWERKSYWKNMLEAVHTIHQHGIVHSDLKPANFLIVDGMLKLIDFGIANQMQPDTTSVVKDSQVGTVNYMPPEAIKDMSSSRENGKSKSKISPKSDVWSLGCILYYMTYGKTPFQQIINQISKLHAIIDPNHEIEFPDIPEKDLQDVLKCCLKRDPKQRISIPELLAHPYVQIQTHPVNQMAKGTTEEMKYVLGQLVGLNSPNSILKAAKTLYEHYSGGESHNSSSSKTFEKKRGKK
Method in brief: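 GST-tagged full-length recombinant human Mps-1 (~0.5 nM) pre-incubated 15 min with compound, then reacted 60 min at 22 °C with 10 μM ATP and 1 μM biotinylated peptide in Hepes pH 7.7 buffer. EDTA-stopped; TR-FRET (Eu anti-phospho-Ser/Thr to SA-XLent) 665/620 nm ratio normalised to no-inhibitor and no-enzyme controls.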

Row | IC50 [µM] | SMILES
1 | > 20 | Cc1nsc(Nc2cncc(C(F)(F)F)n2)c1C(=O)Nc1ccc(F)c(OC2CCN(C(=O)OC(C)(C)C)CC2)c1 [Example 168, tert-butyl 4-(2-fluoro-5-{[(3-methyl-5-{[6-(trifluoromethyl)pyrazin-2-yl]amino}-1,2-thiazol-4-yl)carbonyl]amino}phenoxy)piperidine-1-carboxylate]
2 | > 20 | Cc1nsc(Nc2cnc(C(F)(F)F)cn2)c1C(=O)Nc1ccc(OC2CCN(CCF)CC2)c(F)c1 [Example 162, N-(3-fluoro-4-{[1-(2-fluoroethyl)piperidin-4-yl]oxy}phenyl)-3-methyl-5-{[5-(trifluoromethyl)pyrazin-2-yl]amino}-1,2-thiazole-4-carboxamide]
3 | > 20 | Cc1nsc(Nc2cnc(C(F)(F)F)cn2)c1C(=O)Nc1ccc(OC2CCN(CC(F)(F)F)CC2)c(F)c1 [Example 163, N-(3-fluoro-4-{[1-(2,2,2-trifluoroethyl)piperidin-4-yl]oxy}phenyl)-3-methyl-5-{[5-(trifluoromethyl)pyrazin-2-yl]amino}-1,2-thiazole-4-carboxamide]
4 | > 20 | Cc1nsc(Nc2ccc(C#N)cn2)c1C(=O)Nc1cccc(S(C)(=O)=O)c1 [Example 150, 5-[(5-cyanopyridin-2-yl)amino]-3-methyl-N-[3-(methylsulfonyl)phenyl]-1,2-thiazole-4-carboxamide]
5 | > 20 | Cc1nsc(Nc2cnc3cc(F)ccc3n2)c1C(=O)Nc1ccc(S(N)(=O)=O)cc1 [Example 149, 5-[(6-fluoroquinoxalin-2-yl)amino]-3-methyl-N-(4-sulfamoylphenyl)-1,2-thiazole-4-carboxamide]
6 | ≥ 20 | Cc1nsc(Nc2cnc3ccccc3n2)c1C(=O)Nc1cccc(-c2nnc(C(C)(C)C)o2)c1 [Example 107, N-[3-(5-tert-Butyl-1,3,4-oxadiazol-2-yl)phenyl]-3-methyl-5-(quinoxalin-2-ylamino)-1,2-thiazole-4-carboxamide]
7 | ≥ 20 | Cc1nsc(Nc2cnc(C(F)(F)F)cn2)c1C(=O)Nc1ccc(F)c(OCC2CCCN(CC(F)F)C2)c1 (centres unmarked) [Example 335, N-(3-{[1-(2,2-difluoroethyl)piperidin-3-yl]methoxy}-4-fluorophenyl)-3-methyl-5-{[5-(trifluoromethyl)pyrazin-2-yl]amino}-1,2-thiazole-4-carboxamide]
8 | ≥ 20 | Cc1nsc(Nc2cnc(C(F)(F)F)cn2)c1C(=O)Nc1ccc(OC2CCNCC2)nc1 [Example 6, 3-Methyl-N-[6-(piperidin-4-yloxy)pyridin-3-yl]-5-{[5-(trifluoromethyl)pyrazin-2-yl]amino}-1,2-thiazole-4-carboxamide]
9 | ≥ 20 | Cc1nsc(Nc2cnc3ccccc3n2)c1C(=O)Nc1cccc(C(=O)N2CCN(C)CC2)c1 [Example 102, 3-Methyl-N-{3-[(4-methylpiperazin-1-yl)carbonyl]phenyl}-5-(quinoxalin-2-ylamino)-1,2-thiazole-4-carboxamide]
10 | ≥ 20 | Cc1nsc(Nc2cnc3ccccc3n2)c1C(=O)Nc1ccc(Oc2cccc(C(F)(F)F)c2)nc1 [Example 117, 3-Methyl-5-(quinoxalin-2-ylamino)-N-{6-[3-(trifluoromethyl)phenoxy]pyridin-3-yl}-1,2-thiazole-4-carboxamide]
11 | ≥ 20 | Cc1nsc(Nc2cnc(C(F)(F)F)cn2)c1C(=O)Nc1ccc(OCC2CCN(CCC(F)(F)F)C2)nc1 (centres unmarked) [Example 124, 3-methyl-5-{[5-(trifluoromethyl)pyrazin-2-yl]amino}-N-(6-{[1-(3,3,3-trifluoropropyl)pyrrolidin-3-yl]methoxy}pyridin-3-yl)-1,2-thiazole-4-carboxamide]
12 | 12 | Cc1nsc(Nc2cnc3ccccc3n2)c1C(=O)Nc1cccc(C(=O)N2CCCC2)c1 [Example 113, 3-Methyl-N-[3-(pyrrolidin-1-ylcarbonyl)phenyl]-5-(quinoxalin-2-ylamino)-1,2-thiazole-4-carboxamide]
13 | ≥ 20 | Cc1nsc(Nc2cnc3ccccc3n2)c1C(=O)Nc1cccc(-c2nc(C(C)(C)C)no2)c1 [Example 108, N-[3-(3-tert-Butyl-1,2,4-oxadiazol-5-yl)phenyl]-3-methyl-5-(quinoxalin-2-ylamino)-1,2-thiazole-4-carboxamide]
14 | 9 | Cc1nsc(Nc2cnc3ccccc3n2)c1C(=O)Nc1cccc(C(=O)NCC(=O)O)c1 [Example 99, N-[3-({[3-Methyl-5-(quinoxalin-2-ylamino)-1,2-thiazol-4-yl]carbonyl}amino)benzoy]-glycine]
